# Reference: patent EP1704862A1, “2,5-bis(tetrahydroxybutyl)pyrazines for the treatment of osteoarthritis and rheumatoid arthritis” (ROTTAPHARM S.P.A., priority 2005, dated 2006)
# Like-named read-outs stand apart in the source and are kept apart here.
# Legend:
# [1] = test system: IL-1β induced GAG release; test: IL-1β induced GAG release in chondrocyte culture (DMB assay); type: cell-based, New Zealand white rabbits; conditions: Oryctolagus cuniculus, rabbit articular chondrocytes, stimulation with 0.3 ng/mL of IL-1β, 24 h, read-out: GAG Release inhibitory activity IC50
# Method: (§1) Inhibitory effects of compounds of this invention were assessed according to the following in vitro assay:
# (§2) Normal articular chondrocytes were obtained from young New Zealand white rabbits. Shoulders, femoral heads and knees were detached and transferred under a laminar flow hood. The articular cartilage was removed from the articular surfaces under sterile conditions. Tissue fragments were successively digested in an incubator (37°C, 5% CO2/95% air) with enzymes dissolved in DMEM plus 50 µg/ml gentamicin and sterile filtered. The three-step digestion was carried out with 0.05% testicular hyaluronidase for 15 min, followed by 0.25% trypsin for 30 min, and 0.2% clostridium collagenase for 90 min. At the end of the incubation period, chondrocyte suspension was two-fold diluted with DMEM plus 10% FCS, passed through a 200 µm and a 50 µm nylon sieves to remove debris and undigested matrix particles. […]
# Proteoglycans associated to cell monolayer were quantified with Dimethylmethylene blue (DMB) assay. […] The absorbance was read within 20 min at 590 nm with a HTS7000plus plate reader. […] The optical density was measured at 590 nm using a plate reader HTS7000plus (Perkin Elmer).
# PGE2 Synthesis [2] = test: IL-1β induced PGE2 synthesis in chondrocyte culture (RIA); type: cell-based, New Zealand white rabbits; conditions: Oryctolagus cuniculus, rabbit articular chondrocytes, stimulation with 0.3 ng/mL of IL-1β, 24 h, read-out: PGE2 Synthesis inhibitory activity IC50
# Method: as §1, §2
# PGE2 released into the culture medium was determined with a RadioImmunoAssay (RIA) performed according to the instructions of the PGE2 antiserum manufacturer (Sigma). […] The supernatant was counted in 7 ml of Ultima-Gold MV® and the amount of radioactivity measured in a Packard Tricarb β-counter. […]
# NO Synthesis [3] = test: IL-1β induced NO synthesis in chondrocyte culture (nitrite, DAN fluorometric method); type: cell-based, New Zealand white rabbits; conditions: Oryctolagus cuniculus, rabbit articular chondrocytes, stimulation with 0.3 ng/mL of IL-1β, 24 h, read-out: NO Synthesis inhibitory activity IC50
# Method: as §1
# as §2, with “min.” for “min. At the end of the incubation period, chondrocyte suspension was two-fold diluted with DMEM plus 10% FCS, passed through a 200 µm and a 50 µm nylon sieves to remove debris and undigested matrix particles.”
# NO production by chondrocytes was measured as nitrite, a stable end product and a reliable indicator of NO synthesis. Nitrites released in the culture supernatant were quantified with the fluorometric method according to Misko (Misko TP, Schilling RJ, Salvemini D, Moore WM, Currie MG. Anal Biochem; 214:11-16, 1993). […] The intensity of fluorescence was recorded in a 96-well plate (optiplate, Packard) with a plate reader (HTS7000 plus, Perkin Elmer) with excitation at 360 nm and emission read at 465 nm. Nitrite concentrations were calculated from a standard curve of sodium nitrite ranging from 10 to 100 ng/ml.
# [4] = Apparent permeability (Papp) across TC-7 cell monolayer; type: in vitro ADME; conditions: human, Caco-2; TC-7 cells, pH 6.5/7.4, average of two experiments
# Text: The preferred route of administration for the compounds of the invention is oral, therefore the compound should have suitable permeability across the human intestinal epithelia to allow absorption into the circulation. However, also when the parenteral route is chosen for administration, an effective compound must be sufficiently permeable across biological membranes to reach the site/s of action. The permeability of compounds of formula (I) has been assessed in vitro using the apparent permeability coefficients approach (Papp) (Pharmacokinetics Optimization in Drug Research: biological, physicochemical and computational strategies; Bernard Testa, Han van de Waterbeemd, 2001, Wiley). The TC-7 clone was used instead of the Caco-2 cell line for this assessment, since it was reported that the two human intestinal epithelial cell lines are equivalent as far as drug transport characteristics are concerned and thus can be used interchangeably to predict absorption in humans after oral administration (MC Gres et al., Pharm. Res., 15, 5, 726-33, 1998); the experimental work was carried out as described in the mentioned literature.
# (§3) Permeability and metabolic stability data are the average of two experiments.
# [5] = Metabolic stability in human liver S9 fraction; type: in vitro ADME; conditions: human liver S9, 1µM, average of two experiments
# Text: (§4) Metabolic stability for the compounds of the invention has been assessed using rat, dog and human liver S9 fractions, using the same methods as described in the literature (R Singh et al., Rapid Commun. Mass Spectrom., 10, 9, 1019-26, 1996).
# as §3
# [6] = Metabolic stability in dog liver S9 fraction; type: in vitro ADME; conditions: dog liver S9, 1µM, average of two experiments
# Text: as §4, §3
# [7] = Metabolic stability in rat liver S9 fraction; type: in vitro ADME; conditions: rat liver S9, 1µM, average of two experiments
# Text: as §4, §3
# Solubility in water = type: physicochemical; conditions: pH 7.4, aqueous buffer
# GAG Release = conditions: Human articular cartilage, IL-1β induced; JPET, 308, 767-773, 2004; read-out: GAG Release inhibitory activity IC50; cited from earlier work
# PGE2 Synthesis [8] = conditions: Human articular chondrocytes, IL-1β induced; Free Rad.Biol.Med. 33, 1097-1105, 2002; read-out: PGE2 Synthesis inhibitory activity IC50; cited from earlier work
# NO Synthesis [9] = conditions: Human articular chondrocytes, IL-1β induced; Free Rad.Biol.Med. 33, 1097-1105, 2002; read-out: NO Synthesis inhibitory activity IC50; cited from earlier work
# PGE2 Synthesis [10] = conditions: Human chondrocytes, IL-1β induced; Osteoarthritis and Cartilage, 2000, 8(6), 434; read-out: PGE2 Synthesis inhibitory activity IC50; cited from earlier work
# NO Synthesis [11] = conditions: Bovine articular cartilage, IL-1β induced; Osteoarthritis and Cartilage, 2000, 8(6), 434; read-out: NO Synthesis inhibitory activity IC50; cited from earlier work
smiles,measurement,setting,value
"OC[C@@H](O)[C@@H](O)[C@H](O)c1cnc([C@@H](O)[C@H](O)[C@H](O)CO)cn1 [Compound 1.1, Bis-(1R, 1'R, 2S, 2'S, 3R, 3'R)-1,2,3,4-butanetetrol-1,1'-(2,5-pyrazinediyl)]",IC50,[1],46 µM
same,IC50,PGE2 Synthesis [2],4 µM
same,IC50,NO Synthesis [3],8 µM
same,Papp A→B,[4],113 ×10⁻⁶ cm/s
same,Papp B→A,[4],72.9 ×10⁻⁶ cm/s
same,In vitro metabolism Parent remaining (%) Test concentration 1µM Human,[5],108%
same,In vitro metabolism Parent remaining (%) Test concentration 1µM Dog,[6],96%
same,In vitro metabolism Parent remaining (%) Test concentration 1µM Rat,[7],110%
same,solubility,Solubility in water,≤ 100 mM
"O=C(O[C@@H]1Cc2c(O)cc(O)cc2O[C@@H]1c1cc(O)c(O)c(O)c1)c1cc(O)c(O)c(O)c1 [EGCG, epigallocatechin gallate]",IC50,GAG Release,~100 µM
same,IC50,PGE2 Synthesis [8],> 200 µM
same,IC50,NO Synthesis [9],~200 µM
COc1nccc(-c2c(-c3ccc(F)cc3)ncn2C2CCNCC2)n1 [SB-242235],IC50,PGE2 Synthesis [10],1 to 3 µM
same,IC50,NO Synthesis [11],1 µM
